What was measured:
[1] = target: Vascular endothelial growth factor receptor 2 (Homo sapiens, UniProt P35968); assay: Inhibition of Vascular endothelial growth factor receptor 2 (KDR)
NIH3T3 = assay: inhibitory activity of the Compound against NIH3T3 Cell lines; type: functional, cell-based; conditions: Mus musculus

Chain of Vascular endothelial growth factor receptor 2 (P35968 whole entry): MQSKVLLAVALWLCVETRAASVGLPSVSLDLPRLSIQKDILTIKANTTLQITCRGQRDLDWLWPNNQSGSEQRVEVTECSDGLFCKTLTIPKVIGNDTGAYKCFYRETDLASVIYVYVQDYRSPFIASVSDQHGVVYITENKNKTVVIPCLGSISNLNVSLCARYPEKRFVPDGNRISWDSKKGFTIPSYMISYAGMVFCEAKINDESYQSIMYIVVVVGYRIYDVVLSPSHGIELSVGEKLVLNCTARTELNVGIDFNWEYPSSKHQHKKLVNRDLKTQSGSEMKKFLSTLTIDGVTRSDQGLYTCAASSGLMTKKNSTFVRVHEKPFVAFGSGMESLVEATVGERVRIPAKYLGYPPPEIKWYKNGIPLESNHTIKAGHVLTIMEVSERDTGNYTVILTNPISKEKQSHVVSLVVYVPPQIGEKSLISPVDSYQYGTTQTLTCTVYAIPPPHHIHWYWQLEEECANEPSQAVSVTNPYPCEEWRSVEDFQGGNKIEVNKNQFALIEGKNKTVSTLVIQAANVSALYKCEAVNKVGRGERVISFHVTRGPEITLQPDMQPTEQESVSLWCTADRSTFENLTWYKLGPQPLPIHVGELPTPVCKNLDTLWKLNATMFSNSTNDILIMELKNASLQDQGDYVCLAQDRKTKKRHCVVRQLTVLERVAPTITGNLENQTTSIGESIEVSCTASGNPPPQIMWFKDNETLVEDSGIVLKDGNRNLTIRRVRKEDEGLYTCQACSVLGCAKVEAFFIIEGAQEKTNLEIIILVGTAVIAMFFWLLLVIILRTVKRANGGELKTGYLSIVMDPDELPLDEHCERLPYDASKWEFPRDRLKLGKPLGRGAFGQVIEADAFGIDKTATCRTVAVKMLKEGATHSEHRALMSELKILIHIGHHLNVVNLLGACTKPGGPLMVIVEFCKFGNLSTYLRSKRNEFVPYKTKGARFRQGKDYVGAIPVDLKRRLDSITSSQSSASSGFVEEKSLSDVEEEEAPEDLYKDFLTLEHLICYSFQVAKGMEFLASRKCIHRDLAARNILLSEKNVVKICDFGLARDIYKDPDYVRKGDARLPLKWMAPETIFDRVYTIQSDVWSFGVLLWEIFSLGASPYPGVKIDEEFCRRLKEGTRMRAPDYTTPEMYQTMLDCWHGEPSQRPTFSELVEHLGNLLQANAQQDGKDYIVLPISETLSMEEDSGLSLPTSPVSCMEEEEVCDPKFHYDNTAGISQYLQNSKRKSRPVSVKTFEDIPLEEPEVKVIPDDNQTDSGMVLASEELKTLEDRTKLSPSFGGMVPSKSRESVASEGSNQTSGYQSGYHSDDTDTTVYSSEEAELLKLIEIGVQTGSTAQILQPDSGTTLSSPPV

Row | IC50 [1] | Structure (SMILES) | IC50 (NIH3T3)
1 | 430 nM | Cc1ccc(NC(=O)Nc2ccc(-c3cccc4c3CNC4=O)cc2)cc1 | –
2 | 46 nM | O=C(Nc1ccc(-c2cccc3c2CNC3=O)cc1)Nc1cccc(Cl)c1 | –
3 | 520 nM | O=C(Nc1ccc(-c2cccc3c2CNC3=O)cc1)Nc1cccc(F)c1 | –
4 | 470 nM | Cc1cccc(NC(=O)Nc2ccc(-c3ccc(NC(=O)c4ccccc4)c4c3CNC4=O)cc2)c1 | –
5 | 10000 nM | Cc1cccc(NC(=S)Nc2ccc(-c3cccc4c3CNC4=O)cc2)c1 | –
6 | 34 nM | Cc1cccc(NC(=O)Nc2ccc(-c3cccc4c3CNC4=O)cc2C(F)(F)F)c1 | –
7 | > 50000 nM | Cc1cccc(CC(=O)Nc2ccc(-c3cccc4c3CNC4=O)cc2)c1 | –
8 | 14 nM | Cc1cccc(NC(=O)Nc2ccc(-c3ccc(N)c4c3CNC4=O)cc2)c1 | –
9 | – | Cc1cccc(NC(=O)Nc2ccc(-c3cccc4c3CNC4=O)cc2C)c1 | 68 nM
10 | 64 nM | CC(=O)Nc1ccc(-c2ccc(NC(=O)Nc3cccc(C)c3)cc2)c2c1C(=O)NC2 | –
11 | 370 nM | N#Cc1cccc(NC(=O)Nc2ccc(-c3cccc4c3CNC4=O)cc2)c1 | –
12 | 23 nM | O=C(Nc1ccc(-c2cccc3c2CNC3=O)cc1)Nc1cc(C(F)(F)F)ccc1F | 150 nM
13 | 21 nM | COc1ccc(-c2ccc(NC(=O)Nc3cccc(C)c3)cc2)c2c1C(=O)NC2 | 170 nM
14 | 83 nM | Cc1cc(C)cc(NC(=O)Nc2ccc(-c3cccc4c3CNC4=O)cc2)c1 | –
15 | 10 nM | Cc1cccc(NC(=O)Nc2ccc(-c3ccc(NC(=O)c4cccnc4)c4c3CNC4=O)cc2)c1 | 11 nM
16 | 6000 nM | CCc1cc(-c2cccc3c2CNC3=O)ccc1NC(=O)Nc1cccc(C)c1 | –
17 | 44 nM | Cc1cccc(NC(=O)Nc2ccc(-c3cccc4c3CNC4=O)cc2F)c1 | –
18 | 19000 nM | Cc1cccc(N(C)C(=O)Nc2ccc(-c3cccc4c3CNC4=O)cc2)c1 | –
19 | 18 nM | CC(C)OCc1ccc2c(c1)c1c3c(c4c(c1n2CCCCC(=O)N(C)C)Cc1ccccc1-4)C(=O)NC3 | –
20 | 1100 nM | Cc1cccc(NC(=O)N(C)c2ccc(-c3cccc4c3CNC4=O)cc2)c1 | –

Row | IC50 [1] | Structure (SMILES) | IC50 (NIH3T3)
21 | 9000 nM | Cc1cccc(NC(=O)Nc2ccc(-c3cccc4c3CNC4=O)c(C(F)(F)F)c2)c1 | –
22 | 52 nM | Cc1cccc(NC(=O)Nc2ccc(-c3cccc4c3CNC4=O)c(F)c2)c1 | –
23 | > 50000 nM | Cc1cccc(NC(=O)Nc2c(C)cc(-c3cccc4c3CNC4=O)cc2C)c1 | –
24 | 770 nM | Cc1cccc(NC(=O)Nc2ccc(-c3cccc4c3CNC4=O)c(C)c2)c1 | –
25 | > 50000 nM | O=C1NCc2c1cccc2-c1ccc(NS(=O)(=O)c2ccccc2)cc1 | –
26 | 1800 nM | O=C(Nc1ccccc1)Nc1ccc(-c2cccc3c2CNC3=O)cc1 | –
27 | 30 nM | Cc1cccc(NC(=O)Nc2ccc(-c3cccc4c3CNC4=O)cc2Cl)c1 | 99 nM
28 | – | Cc1cccc(NC(=O)Nc2ccc(-c3cccc4c3CNC4=O)cc2)c1 | 270 nM
29 | 71 nM | Cc1cccc(NC(=O)Nc2ccc(-c3cccc4c3CNC4=O)c(Cl)c2)c1 | –
30 | > 50 nM | COc1cc(-c2nn([C@H]3CC[C@H](N4CCN(C)CC4)CC3)c3ncnc(N)c23)ccc1NC(=O)c1ccccc1 | –
31 | 2100 nM | Cc1cccc(NC(=O)Cc2ccc(-c3cccc4c3CNC4=O)cc2)c1 | –
32 | 350 nM | Cc1cccc(NC(=O)Nc2ccc(-c3ccc(NC(=O)CN(C)C)c4c3CNC4=O)cc2)c1 | –
33 | 570 nM | COc1cccc(NC(=O)Nc2ccc(-c3cccc4c3CNC4=O)cc2)c1 | –
34 | 4400 nM | Cc1ccccc1NC(=O)Nc1ccc(-c2cccc3c2CNC3=O)cc1 | –
35 | > 50000 nM | O=C(Nc1ccc(-c2cccc3c2CNC3=O)cc1)c1ccccc1 | –
36 | 161 nM | O=C(Nc1ccc(-c2cccc3c2CNC3=O)cc1)Nc1ccc(C(F)(F)F)cc1 | –
37 | 126 nM | COCCOc1ccc(-c2ccc(NC(=O)Nc3cccc(C)c3)cc2)c2c1C(=O)NC2 | –
38 | 7 nM | O=C(Nc1ccc(-c2cccc3c2CNC3=O)cc1)Nc1cccc(C(F)(F)F)c1 | 65 nM
39 | 39 nM | O=C(Nc1ccc(-c2cccc3c2CNC3=O)cc1)Nc1ccc2c(c1)CCC2 | –
40 | 29 nM | CCc1cccc(NC(=O)Nc2ccc(-c3cccc4c3CNC4=O)cc2)c1 | –

From ChEMBL document CHEMBL1137187, “Isoindolinone ureas: a novel class of KDR kinase inhibitors” (Bioorg Med Chem Lett, 2004)
